Among the data in the OligoGym collection are normalised inhibition (eCFP-eYFP dual reporter) values, retold here.

Oligonucleotides are written 5' to 3', each unit as a sugar letter and its base; * is a phosphorothioate linkage, no mark a phosphodiester; rarer units and linkages stand in square brackets, end groups in braces. Plain capitals give the bases only. d = 2'-deoxy (DNA); r = 2'-OH (RNA)
Further: test concentration or dose not given here.

In the series the target is UBE2L6. Put plainly: reporter assay of Huesken 2005. As to conditions: siRNA. In general terms: In a reporter assay the amount or activity of a reporter protein is the signal.
As for “sense rArCrCrArArGrArUrCrUrArCrCrArCrCrCrCrAdTdT / antisense rUrGrGrGrGrUrGrGrUrArGrArUrCrUrUrGrGrUdTdG”, the normalised inhibition (eCFP-eYFP dual reporter) is 90.8%. For “sense rUrCrUrArCrCrArCrCrCrCrArArCrGrUrGrGrAdTdT / antisense rUrCrCrArCrGrUrUrGrGrGrGrUrGrGrUrArGrAdTdC”, the normalised inhibition (eCFP-eYFP dual reporter) turned out to be 53%. With “sense rUrGrArCrArCrArGrArArUrCrCrGrGrArGrCrUdTdT / antisense rArGrCrUrCrCrGrGrArUrUrCrUrGrUrGrUrCrAdGdC”, the normalised inhibition (eCFP-eYFP dual reporter) was determined as 54.8%. Then “sense rCrArCrArGrArArUrCrCrGrGrArGrCrUrGrUrUdTdT / antisense rArArCrArGrCrUrCrCrGrGrArUrUrCrUrGrUrGdTdC”, with 97.8%.

Consider “sense rCrGrArUrGrArUrGrCrCrArArUrGrUrCrCrUrGdTdT / antisense rCrArGrGrArCrArUrUrGrGrCrArUrCrArUrCrGdCdT”, for which the normalised inhibition (eCFP-eYFP dual reporter) was 97.1%. Take “sense rArArUrGrCrCrGrArArGrArGrUrUrCrArCrCrCdTdT / antisense rGrGrGrUrGrArArCrUrCrUrUrCrGrGrCrArUrUdCdT”: the normalised inhibition (eCFP-eYFP dual reporter) is 51.6%. Then “sense rUrGrCrCrGrArArGrArGrUrUrCrArCrCrCrUrCdTdT / antisense rGrArGrGrGrUrGrArArCrUrCrUrUrCrGrGrCrAdTdT”, with 59.9%; and “sense rUrUrCrCrCrGrCrCrGrGrArGrUrArUrCrCrGrUdTdT / antisense rArCrGrGrArUrArCrUrCrCrGrGrCrGrGrGrArAdGdC”, with 43%; and “sense rUrCrCrUrGrGrArGrGrCrCrCrUrCrArArUrGrUdTdT / antisense rArCrArUrUrGrArGrGrGrCrCrUrCrCrArGrGrAdCdT”, with 74.2%. Then “sense rUrUrCrArArGrCrCrUrCrCrCrArUrGrArUrCrAdTdT / antisense rUrGrArUrCrArUrGrGrGrArGrGrCrUrUrGrArAdCdG”, with 71.2%.

On to “sense rCrCrGrArArUrArUrCrArGrGrGrArGrCrCrCrCdTdT / antisense rGrGrGrGrCrUrCrCrCrUrGrArUrArUrUrCrGrGdTdC”, for which the normalised inhibition (eCFP-eYFP dual reporter) was 50%. In the case of “sense rUrArCrCrArCrCrCrCrArArCrGrUrGrGrArCrGdTdT / antisense rCrGrUrCrCrArCrGrUrUrGrGrGrGrUrGrGrUrAdGdA” it was 37.4%; in that of “sense rArCrCrUrGrCrGrGrArArCrCrUrGrUrCrCrArGdTdT / antisense rCrUrGrGrArCrArGrGrUrUrCrCrGrCrArGrGrUdAdT”, 73.8%. Take “sense rArGrUrUrCrArCrCrCrUrCrCrGrArUrUrCrGrGdTdT / antisense rCrCrGrArArUrCrGrGrArGrGrGrUrGrArArCrUdCdT”: the normalised inhibition (eCFP-eYFP dual reporter) amounted to 55.3%. Turning to “sense rCrArArArUrUrCrArCrArArCrCrArArGrArUrCdTdT / antisense rGrArUrCrUrUrGrGrUrUrGrUrGrArArUrUrUrGdAdT”, the normalised inhibition (eCFP-eYFP dual reporter) is 85.9%.

Turning to “sense rArArCrUrGrGrArArGrCrCrUrUrGrCrArCrCrAdTdT / antisense rUrGrGrUrGrCrArArGrGrCrUrUrCrCrArGrUrUdCdT”, the normalised inhibition (eCFP-eYFP dual reporter) came to 77.8%.

Take “sense rCrUrUrGrCrArCrCrArArGrArCrUrUrGrCrCrAdTdT / antisense rUrGrGrCrArArGrUrCrUrUrGrGrUrGrCrArArGdGdC”: the normalised inhibition (eCFP-eYFP dual reporter) turned out to be 89.6%. Then “sense rCrCrArCrCrCrCrArArCrGrUrGrGrArCrGrArGdTdT / antisense rCrUrCrGrUrCrCrArCrGrUrUrGrGrGrGrUrGrGdTdA”, with 67.6%; and “sense rArArArGrCrCrUrUrCrArArCrCrUrGrCrGrCrAdTdT / antisense rUrGrCrGrCrArGrGrUrUrGrArArGrGrCrUrUrUdCdA”, with 69.8%; and “sense rGrGrArGrUrArUrCrCrGrUrUrCrArArGrCrCrUdTdT / antisense rArGrGrCrUrUrGrArArCrGrGrArUrArCrUrCrCdGdG”, with 84.6%.

For “sense rArUrGrGrArCrCrUrCrGrCrUrGrArCrCrUrGrCdTdT / antisense rGrCrArGrGrUrCrArGrCrGrArGrGrUrCrCrArUdCdC”, the normalised inhibition (eCFP-eYFP dual reporter) was found to be 43.8%.

Consider “sense rCrUrUrCrCrCrGrCrCrGrGrArGrUrArUrCrCrGdTdT / antisense rCrGrGrArUrArCrUrCrCrGrGrCrGrGrGrArArGdCdT”, for which the normalised inhibition (eCFP-eYFP dual reporter) came to 38.1%. As to “sense rArCrCrUrGrCrGrCrArUrCrArGrCrUrUrCrCrCdTdT / antisense rGrGrGrArArGrCrUrGrArUrGrCrGrCrArGrGrUdTdG”, the normalised inhibition (eCFP-eYFP dual reporter) was 70.9%. As to “sense rGrUrUrCrArCrCrCrUrCrCrGrArUrUrCrGrGrAdTdT / antisense rUrCrCrGrArArUrCrGrGrArGrGrGrUrGrArArCdTdC”, the normalised inhibition (eCFP-eYFP dual reporter) is 61.1%. Regarding “sense rArArCrCrUrGrCrGrCrArUrCrArGrCrUrUrCrCdTdT / antisense rGrGrArArGrCrUrGrArUrGrCrGrCrArGrGrUrUdGdA”, the normalised inhibition (eCFP-eYFP dual reporter) stood at 51.6%. In the case of “sense rArCrUrUrGrCrCrArArGrUrCrCrUrGrGrArGrGdTdT / antisense rCrCrUrCrCrArGrGrArCrUrUrGrGrCrArArGrUdCdT” it was 31.8%; in that of “sense rArUrCrArGrCrUrUrCrCrCrGrCrCrGrGrArGrUdTdT / antisense rArCrUrCrCrGrGrCrGrGrGrArArGrCrUrGrArUdGdC”, 52.3%. Then “sense rGrUrGrGrCrArCrGrCrUrCrUrCrCrUrCrCrUrAdTdT / antisense rUrArGrGrArGrGrArGrArGrCrGrUrGrCrCrArCdAdC”, with 96.9%; and “sense rArCrCrCrGrArCrCrArArCrCrUrCrCrCrUrArCdTdT / antisense rGrUrArGrGrGrArGrGrUrUrGrGrUrCrGrGrGrUdAdG”, with 64%. As to “sense rUrCrCrUrCrCrUrArCrCrCrGrArCrCrArArCrCdTdT / antisense rGrGrUrUrGrGrUrCrGrGrGrUrArGrGrArGrGrAdGdA”, the normalised inhibition (eCFP-eYFP dual reporter) came out at 49.5%.

Turning to “sense rCrUrGrArCrArCrArGrArArUrCrCrGrGrArGrCdTdT / antisense rGrCrUrCrCrGrGrArUrUrCrUrGrUrGrUrCrArGdCdA”, the normalised inhibition (eCFP-eYFP dual reporter) amounted to 79.6%.

“sense rArCrArCrArGrArArUrCrCrGrGrArGrCrUrGrUdTdT / antisense rArCrArGrCrUrCrCrGrGrArUrUrCrUrGrUrGrUdCdA”: the normalised inhibition (eCFP-eYFP dual reporter) was found to be 85.4%. Take “sense rGrGrArGrCrUrGrUrUrCrArGrArArArGrArArUdTdT / antisense rArUrUrCrUrUrUrCrUrGrArArCrArGrCrUrCrCdGdG”: the normalised inhibition (eCFP-eYFP dual reporter) was 108%. Then “sense rCrCrGrArArGrArGrUrUrCrArCrCrCrUrCrCrGdTdT / antisense rCrGrGrArGrGrGrUrGrArArCrUrCrUrUrCrGrGdCdA”, with 62.6%; and “sense rUrUrCrArGrArArArGrArArUrGrCrCrGrArArGdTdT / antisense rCrUrUrCrGrGrCrArUrUrCrUrUrUrCrUrGrArAdCdA”, with 57.7%. Consider “sense rCrArUrCrArGrCrArGrUrGrArGrArArCrUrGrGdTdT / antisense rCrCrArGrUrUrCrUrCrArCrUrGrCrUrGrArUrGdAdT”, for which the normalised inhibition (eCFP-eYFP dual reporter) worked out at 65.7%. In the case of “sense rArGrGrGrArGrCrCrCrCrUrGrCrGrGrArUrGrGdTdT / antisense rCrCrArUrCrCrGrCrArGrGrGrGrCrUrCrCrCrUdGdA” it was 60.1%; in that of “sense rUrGrGrUrGrUrGrGrCrArCrGrCrUrCrUrCrCrUdTdT / antisense rArGrGrArGrArGrCrGrUrGrCrCrArCrArCrCrAdGdG”, 89.5%. In the case of “sense rCrCrCrUrGrCrGrGrArUrGrGrArCrCrUrCrGrCdTdT / antisense rGrCrGrArGrGrUrCrCrArUrCrCrGrCrArGrGrGdGdC” it was 59.7%; in that of “sense rCrGrGrArUrGrGrArCrCrUrCrGrCrUrGrArCrCdTdT / antisense rGrGrUrCrArGrCrGrArGrGrUrCrCrArUrCrCrGdCdA”, 71.6%. In the case of “sense rGrArUrUrUrGrCrCrUrGrCrCrCrArUrCrArUrCdTdT / antisense rGrArUrGrArUrGrGrGrCrArGrGrCrArArArUrCdTdG” it was 71.3%; in that of “sense rGrGrCrArCrGrCrUrCrUrCrCrUrCrCrUrArCrCdTdT / antisense rGrGrUrArGrGrArGrGrArGrArGrCrGrUrGrCrCdAdC”, 62.5%; in that of “sense rUrGrUrGrCrUrGrGrUrGrArArUrArGrArCrCrGdTdT / antisense rCrGrGrUrCrUrArUrUrCrArCrCrArGrCrArCrAdTdT”, 59%. Turning to “sense rArGrCrGrArUrGrArUrGrCrCrArArUrGrUrCrCdTdT / antisense rGrGrArCrArUrUrGrGrCrArUrCrArUrCrGrCrUdGdG”, the normalised inhibition (eCFP-eYFP dual reporter) worked out at 87.3%. In the case of “sense rCrCrCrArUrGrArUrCrArArArUrUrCrArCrArAdTdT / antisense rUrUrGrUrGrArArUrUrUrGrArUrCrArUrGrGrGdAdG” it was 95.2%; in that of “sense rArArCrCrArArGrArUrCrUrArCrCrArCrCrCrCdTdT / antisense rGrGrGrGrUrGrGrUrArGrArUrCrUrUrGrGrUrUdGdT”, 43.6%; in that of “sense rUrCrUrCrCrUrCrCrUrArCrCrCrGrArCrCrArAdTdT / antisense rUrUrGrGrUrCrGrGrGrUrArGrGrArGrGrArGrAdGdC”, 79.9%. Take “sense rUrCrArArUrGrUrGrCrUrGrGrUrGrArArUrArGdTdT / antisense rCrUrArUrUrCrArCrCrArGrCrArCrArUrUrGrAdGdG”: the normalised inhibition (eCFP-eYFP dual reporter) stood at 69.1%.

As for “sense rUrGrGrArArGrCrCrUrUrGrCrArCrCrArArGrAdTdT / antisense rUrCrUrUrGrGrUrGrCrArArGrGrCrUrUrCrCrAdGdT”, the normalised inhibition (eCFP-eYFP dual reporter) came out at 77.7%.
